This is an account of results in patent publication US20060030585A1, “Tricyclic delta-opioid modulators” (priority 2004, published 2006).

One experiment has as its target mu opioid receptor (Rattus norvegicus, UniProt P33535). The experiment is described as follows: Rat brain mu opioid receptor binding assay ([3H]DAMGO). Particulars: Rat mu opioid receptor binding constant, rat forebrain membranes, ~0.8 nM [3H]DAMGO. Here is the method: Rat Brain Mu Opioid Receptor Binding Assay
(§1) Procedure: Male, Sprague Dawley rats (150-250 g, VAF, Charles River, Kingston, N.Y.) were killed by CO2, and their brains removed and placed immediately in ice cold Tris HCl buffer (50 mM, pH 7.4). The forebrains were separated from the remainder of the brain by a coronal transection, beginning dorsally at the colliculi and passing ventrally through the midbrain-pontine junction. After dissection, the forebrains were homogenized in Tris buffer in a Teflon®-glass homogenizer. The homogenate was diluted to a concentration of 1 g of forebrain tissue per 80 mL Tris and centrifuged at 39,000×g for 10 min. The pellet was resuspended in the same volume of Tris buffer containing 5 mM MgCl2 with several brief pulses from a Polytron homogenizer. This particulate preparation was used for the delta opioid binding assays.
Analysis: The data from the scintillation counter were used to calculate either the % inhibition compared to control binding (when only a single concentration of test compound was evaluated) or a Ki value (when a range of concentrations tested). Percent inhibition was calculated as: [(total dpm-test compound dpm)/(total dpm-nonspecific dpm)]*100. Kd and Ki values were calculated using GraphPad PRISM data analysis program.

Another experiment deals with delta opioid receptor (Rattus norvegicus, UniProt P33533). The experiment is described as follows: Rat brain delta opioid receptor binding assay ([3H]DPDPE). The note with it: Rat delta opioid receptor binding constant, rat forebrain membranes, ~4 nM [3H]DPDPE. Here is the method: Rat Brain Delta Opioid Receptor Binding Assay
as §1, with “assays. Following incubation with the delta selective peptide ligand ˜4 nM [^3H]DPDPE at 25° C. for 2.5 h in a 96-well plate with total volume of 1 mL, the plate contents were filtered through Wallac filtermat B sheets on a Tomtec 96-well harvester. The filters were rinsed three times with 2 mL of 10 mM HEPES (pH 7.4), and dried in a 650 W microwave oven for 1.75 min twice. To each sample area 2×50 μL of Betaplate Scint scintillation fluid (LKB) was added and the radioactivity quantified on a LKB (Wallac) 1205 BetaPlate liquid scintillation counter.” for “assays.”
Analysis: The data from the scintillation counter were used to calculate either the % inhibition compared to control binding (when only a single concentration of test compound was evaluated) or a Ki value (when a range of concentrations was tested). Percent inhibition was calculated as: [(total dpm-test compound dpm)/(total dpm-nonspecific dpm)]*100. Kd and Ki values were calculated using GraphPad PRISM data analysis program.

The structures appear in SMILES notation. Where two headings read alike, the source gives them in different places.

Chain of delta opioid receptor (P33533 whole entry): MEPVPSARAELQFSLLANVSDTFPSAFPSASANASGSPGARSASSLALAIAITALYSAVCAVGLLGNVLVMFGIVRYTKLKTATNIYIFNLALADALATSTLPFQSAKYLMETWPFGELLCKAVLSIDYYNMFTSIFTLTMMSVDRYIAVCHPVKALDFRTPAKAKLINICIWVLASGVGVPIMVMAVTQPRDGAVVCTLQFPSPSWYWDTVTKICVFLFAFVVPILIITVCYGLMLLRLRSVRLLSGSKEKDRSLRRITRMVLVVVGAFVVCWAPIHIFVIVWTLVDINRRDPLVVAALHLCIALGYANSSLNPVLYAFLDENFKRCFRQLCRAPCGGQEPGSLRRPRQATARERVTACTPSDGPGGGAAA
Chain of mu opioid receptor (P33535 whole entry): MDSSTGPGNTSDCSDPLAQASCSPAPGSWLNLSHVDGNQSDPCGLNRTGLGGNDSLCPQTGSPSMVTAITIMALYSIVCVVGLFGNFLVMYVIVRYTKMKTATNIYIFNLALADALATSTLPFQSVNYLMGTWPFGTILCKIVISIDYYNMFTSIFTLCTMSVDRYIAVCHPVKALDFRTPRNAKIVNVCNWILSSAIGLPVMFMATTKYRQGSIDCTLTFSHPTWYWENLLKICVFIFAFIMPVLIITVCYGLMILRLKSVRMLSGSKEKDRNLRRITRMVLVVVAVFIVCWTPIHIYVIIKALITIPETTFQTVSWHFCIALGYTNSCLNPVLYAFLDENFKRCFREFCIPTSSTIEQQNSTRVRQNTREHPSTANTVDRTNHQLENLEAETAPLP

For orientation: Ki means a dissociation constant, usually derived from enzyme kinetics or from competition with a known ligand. With `Fc1cccc(-c2ccc3c(c2)Oc2ccccc2C3=C2CC3CCC(C2)N3)c1` [Cpd 51], the Ki worked out at 16500 nM on mu opioid receptor (MOR Ki) and 2440 nM on delta opioid receptor (DOR Ki).
The like results for `CN(Cc1ccccc1)C(=O)c1ccc2c(c1)Oc1ccccc1C2=C1CC2CCC(C1)N2` [Cpd 52] were, in that order, 1830 nM and 2730 nM.
Take `CS(=O)(=O)c1ccc(-c2ccc3c(c2)Oc2ccccc2C3=C2CC3CCC(C2)N3)cc1` [Cpd 53]: the Ki at mu opioid receptor (MOR Ki) was 3290 nM; on delta opioid receptor (DOR Ki), 3140 nM.
The matching figures for `c1ccc2c(c1)Oc1cc(-c3ccsc3)ccc1C2=C1CC2CCC(C1)N2` [Cpd 55]: 9280 nM and 4720 nM.
The like results for `CN(C)CCN(C)C(=O)c1ccc2c(c1)Oc1ccccc1C2=C1CC2CCC(C1)N2` [Cpd 56] were, in that order, 28500 nM and 4930 nM.
The matching figures for `COc1cccc(-c2ccc3c(c2)Oc2ccccc2C3=C2CC3CCC(C2)N3)c1` [Cpd 57]: 19700 nM and 6960 nM.
Consider `CN(CCO)C(=O)c1ccc2c(c1)Oc1ccccc1C2=C1CC2CCC(C1)N2` [Cpd 61, 9-(8-Aza-bicyclo[3.2.1]oct-3-ylidene)-9H-xanthene-3-carboxylic acid (2-hydroxy-ethyl)-methyl-amide], for which the Ki was found to be 876 nM on mu opioid receptor (MOR Ki) and 6.25 nM on delta opioid receptor (DOR Ki).
Consider `O=C(NC1CCC(C(F)(F)F)CC1)c1ccc2c(c1)Oc1ccccc1C2=C1CC2CCC(C1)N2` (centres unmarked) [Cpd 62], for which the figures for the inhibitory constant (Ki) on mu opioid receptor (read-out: MOR Ki) and at delta opioid receptor (read-out: DOR Ki) were 7400 nM and 309 nM, respectively.
Take `CS(=O)(=O)Nc1cccc(-c2ccc3c(c2)Oc2ccccc2C3=C2CC3CCC(C2)N3)c1` [Cpd 63]: the Ki on mu opioid receptor (MOR Ki) was 5120 nM; on delta opioid receptor (DOR Ki), 161 nM.
Take `O=C(NCC(F)(F)F)c1ccc2c(c1)Oc1ccccc1C2=C1CC2CCC(C1)N2` [Cpd 64]: the inhibition constant (Ki) on mu opioid receptor (MOR Ki) turned out to be 411 nM; at delta opioid receptor (DOR Ki) it was 52 nM.
With `COc1cccc(C2CCCN(C(=O)c3ccc4c(c3)Oc3ccccc3C4=C3CC4CCC(C3)N4)C2)c1` (centres unmarked) [Cpd 65], the Ki at mu opioid receptor (MOR Ki) was 317 nM; on delta opioid receptor (DOR Ki) it was 88 nM.
The like results for `CN(C(=O)c1ccc2c(c1)Oc1ccccc1C2=C1CC2CCC(C1)N2)c1ccc(F)cc1` [Cpd 66] were, in that order, 935 nM and 93 nM.
With `CC(C)C[C@H](CO)NC(=O)c1ccc2c(c1)Oc1ccccc1C2=C1CC2CCC(C1)N2` [Cpd 67], the Ki on mu opioid receptor (MOR Ki) came out at 1570 nM; at delta opioid receptor (DOR Ki), 360 nM.
With `CN(C)C(=O)CN(C)C(=O)c1ccc2c(c1)Oc1ccccc1C2=C1CC2CCC(C1)N2` [Cpd 68], the results for the Ki at mu opioid receptor (read-out: MOR Ki) and at delta opioid receptor (read-out: DOR Ki) were 2390 nM and 8.5 nM, respectively.
`O=C(O)c1ccc2c(c1)Oc1ccccc1C2=C1CC2CCC(C1)N2` [Cpd 72]: the inhibition constant (Ki) at mu opioid receptor (read-out: MOR Ki) came to 1960 nM; at delta opioid receptor (read-out: DOR Ki), 216 nM.
Turning to `COC(=O)c1ccc2c(c1)Oc1ccccc1C2=C1CC2CCC(C1)N2` [Cpd 73], the Ki is 6340 nM on mu opioid receptor (read-out: MOR Ki) and 1010 nM on delta opioid receptor (read-out: DOR Ki).
On to `CCOC(=O)N1C2CCC1CC(=C1c3ccccc3Oc3cc(C(=O)N(C)CCO)ccc31)C2` [Cpd 75], for which the Ki on mu opioid receptor (read-out: MOR Ki) is 10000 nM; on delta opioid receptor (read-out: DOR Ki) it was 4470 nM.
The matching figures for `COC(=O)c1ccc2c(c1)Sc1ccccc1C2=C1CC2CCC(C1)N2` [Cpd 76]: 4740 nM and 370 nM.
In the case of `N#Cc1ccc2c(c1)Oc1ccccc1C2=C1CC2CCC(C1)N2` [Cpd 77], the figures for the Ki on mu opioid receptor (read-out: MOR Ki) and at delta opioid receptor (read-out: DOR Ki) were 2480 nM and 2710 nM, respectively.
On to `COC(=O)c1ccc2c(c1)Oc1cc(C(=O)OC)ccc1C2=C1CC2CCC(C1)N2` [Cpd 78, 9-(8-Aza-bicyclo[3.2.1]oct-3-ylidene)-9H-xanthene-3,6-dicarboxylic acid dimethyl ester], for which the Ki at mu opioid receptor (MOR Ki) is 7000 nM; at delta opioid receptor (DOR Ki), 1150 nM.
Consider `COc1cccc2c1Oc1cc(Br)ccc1C2=C1CC2CCC(C1)N2` [Cpd 79], for which the figures for the Ki on mu opioid receptor (MOR Ki) and on delta opioid receptor (DOR Ki) were 4780 nM and 192 nM, respectively.
Regarding `c1ccc2c(c1)Oc1cc(-c3nnn[nH]3)ccc1C2=C1CC2CCC(C1)N2` [Cpd 81], the inhibition constant (Ki) on mu opioid receptor (read-out: MOR Ki) was determined as 261 nM; at delta opioid receptor (read-out: DOR Ki), 0.5 nM.
